The target of one experiment is T1, Bcl-xL (Homo sapiens, UniProt Q07817).
T1 construct: Measured levels of Bcl-xL protein of HCT116 cells treated with the tested compounds; host or cells: HCT116
The experiment is described as follows: HCT116 Bcl-xL degradation, capillary-based immunoassay (WES). In kind it is cell-based. The settings on record: for DC50: HCT116, 24 h, 9-point serial dilution. The method, then:
HCT116 cells were purchased from ATCC and cultivated in RPMI 1640 supplemented with 10% heat inactivated fetal bovine serum, penicillin (100 IU/mi), streptomycin (100 μg/ml) and L-glutamine (2 mM). Cells were cultured at 37° C. in a humidified atmosphere containing 5% CO2. Cells were seeded in 96 microwell plates, 24 h later cells were treated with compounds (2-point 10/100 nM and/or 9-point serial dilution to determine DC50; quadruplicates) during 24 h and harvested in lysis buffer containing 10 mM Hepes (pH 7.5), 150 mM KCl, 5 mM MgCl2, 1 mM EDTA, 0.4% TritonX100, protease and phosphatase inhibitors cocktails (Calbiochem).
Protein concentration in the supernatants was determined using the Pierce BCA protein assay kit (Thermo Fisher Scientific). Lysates (1.5 μg/μL) were analyzed using an automated capillary electrophoresis WES system with 2-40 kDa Wes Separation Module (25 capillary cartridges, Proteinsimple), in accordance with the manufacturer's protocols. Antibodies against the following proteins were used: Bcl-xL (#2764, Cell Signaling Technology, 1:50) and cofilin (#5175, Cell Signaling Technology, 1:1000). Signals were detected with an HRP-conjugated secondary anti-rabbit antibody (#042-206, Proteinsimple) and were quantified using Compass software (version 4.0, Proteinsimple).
Bcl-xL level was calculated by normalizing Bcl-xL values to cofilin and expressed as a percentage of the normalized value of the untreated cells. DC50 were calculated using standard four-parametric curve fitting. DC50 is defined as the compound concentration at which Bcl-xL is reduced to 50% of that measured for the control. Measured levels of Bcl-xL protein of HCT116 cells treated with the tested compounds at 2-point 10 nM/100 nM and/or 9-point for DC50 determination are shown in Table 15.

Another experiment has as its system MOLT-4 cells. The experiment is described as follows: MOLT-4 cell viability, CTG assay. The following applies: Homo sapiens, MOLT-4, 48 h. It counts as cell-based. The source says:
The MTT colorimetric assay is based on the mitochondrial reduction of tetrazolium salt by living cells. The viable cell number is proportional to the production of formazan salts, which can be read spectrophotometrically at 540 nm. The CTG luminescent assay (CellTiter GLO, Promega) is based on a reagent which lyses cells and measures total adenosine triphosphate (ATP) content. The viable cell number is proportional to the production of ATP.
MOLT-4 cells were purchased from ATCC and cultivated in RPMI 1640 supplemented with 10% heat inactivated fetal bovine serum, penicillin (100 IU/mi), streptomycin (100 μg/ml) and L-glutamine (2 mM). Cells were cultured at 37° C. in a humidified atmosphere containing 5% […].
For CTG assay, cells were seeded in 384 microwell plates (40 μL per well) and exposed to the compounds for 48 h (11-point serial dilution with 5-fold factor, triplicates). At the end of incubation time, 40 μL of CTG solution were added per well. Wells were mixed thoroughly, and plates were incubated at room temperature for 10 minutes to stabilize luminescent signals prior to reading using a luminescence reader (PHERAStar FSX Reader, BMG Labtech).
IC50, were calculated using standard four-parametric curve fitting. IC50 is defined as the compound concentration at which the MTT or CTG signal is reduced to 50% of that measured for the control. Results shown in Table 14 represent the mean of at least 2 independent experiments.

Some results are limits rather than exact numbers.

T1 sequence (Q07817 whole entry): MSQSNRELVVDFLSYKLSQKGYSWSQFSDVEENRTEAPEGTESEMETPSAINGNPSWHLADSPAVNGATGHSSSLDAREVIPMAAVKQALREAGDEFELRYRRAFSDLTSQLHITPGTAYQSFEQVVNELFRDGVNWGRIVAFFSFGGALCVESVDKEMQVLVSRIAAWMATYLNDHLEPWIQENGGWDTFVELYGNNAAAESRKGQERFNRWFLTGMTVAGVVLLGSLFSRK

In the case of `Cc1ncsc1-c1ccc(CNC(=O)[C@@H]2C[C@@H](O)CN2C(=O)[C@@H](NC(=O)C2(F)CC2)C(C)(C)C)c(OCCCCCCCCCCCCCCCN(C)CCOC23CC4(C)CC(C)(CC(Cn5ncc(-c6ccc(N7CCCc8c7nnc(Nc7nc9ccccc9s7)c8C)nc6C(=O)O)c5C)(C4)C2)C3)c1` [Example 83, 6-[3-(1,3-benzothiazol-2-ylamino)-4-methyl-6,7-dihydro-5H-pyrido[2,3-c]pyridazin-8-yl]-3-[1-[[3-[2-[15-[2-[[[(2S,4R)-1-[(2S)-2-[(1-fluorocyclopropanecarbonyl)amino]-3,3-dimethyl-butanoyl]-4-hydroxy-pyrrolidine-2-carbonyl]amino]methyl]-5-(4-methylthiazol-5-yl)phenoxy]pentadecyl-methyl-amino]ethoxy]-5,7-dimethyl-1-adamantyl]methyl]-5-methyl-pyrazol-4-yl]pyridine-2-carboxylic acid], at Bcl-xL, the 50% degradation concentration (DC50) is 4.49 nM. In the experiment on MOLT-4 cells, the IC50 amounted to 4.72 nM.
The matching figures for `Cc1c(Nc2nc3ccccc3s2)nnc2c1CCCN2c1ccc(-c2cnn(CC34CC5(C)CC(C)(C3)CC(OCCN(C)CCCCCCCCCCCCCCOc3ccc6c(c3)C(=O)N(C3CCC(=O)NC3=O)C6=O)(C5)C4)c2C)c(C(=O)O)n1` (stereo not shown) [Example 142, 6-[3-(1,3-benzothiazol-2-ylamino)-4-methyl-6,7-dihydro-5H-pyrido[2,3-c]pyridazin-8-yl]-3-[1-[[3-[2-[14-[2-(2,6-dioxo-3-piperidyl)-1,3-dioxo-isoindolin-5-yl]oxytetradecyl-methyl-amino]ethoxy]-5,7-dimethyl-1-adamantyl]methyl]-5-methyl-pyrazol-4-yl]pyridine-2-carboxylic acid]: 0.341 nM and 3.76 nM.
In the same order, the values of `CN[C@@H](C)C(=O)N[C@H](C(=O)N1CCC[C@H]1c1nc(C(=O)c2cccc(OCCCCCCN(C)CCOC34CC5(C)CC(C)(CC(Cn6ncc(-c7ccc(N8CCCc9c8nnc(Nc8nc%10ccccc%10s8)c9C)nc7C(=O)O)c6C)(C5)C3)C4)c2)cs1)C1CCCCC1` [Example 102, 6-[3-(1,3-benzothiazol-2-ylamino)-4-methyl-6,7-dihydro-5H-pyrido[2,3-c]pyridazin-8-yl]-3-[1-[[3-[2-[6-[3-[2-[(2S)-1-[(2S)-2-cyclohexyl-2-[[(2S)-2-(methylamino)propanoyl]amino]acetyl]pyrrolidin-2-yl]thiazole-4-carbonyl]phenoxy]hexyl-methyl-amino]ethoxy]-5,7-dimethyl-1-adamantyl]methyl]-5-methyl-pyrazol-4-yl]pyridine-2-carboxylic acid] are 0.448 nM and 4.07 nM.
The matching figures for `Cc1cc(N(CCCCN(C)C(=O)CCCCCCCCCCNc2cccc3c2C(=O)N(C2CCC(=O)NC2=O)C3=O)c2ccc(-c3cnn(CC45CC6(C)CC(C)(C4)CC(OCCN(C)C)(C6)C5)c3C)c(C(=O)O)n2)nnc1Nc1nc2ccccc2s1` (stereo not shown) [Example 90, 6-[[6-(1,3-benzothiazol-2-ylamino)-5-methyl-pyridazin-3-yl]-[4-[11-[[2-(2,6-dioxo-3-piperidyl)-1,3-dioxo-isoindolin-4-yl]amino]undecanoyl-methyl-amino]butyl]amino]-3-[1-[[3-[2-(dimethylamino)ethoxy]-5,7-dimethyl-1-adamantyl]methyl]-5-methyl-pyrazol-4-yl]pyridine-2-carboxylic acid]: 1.33 nM and 16.8 nM.
`CN[C@@H](C)C(=O)N[C@H](C(=O)N1CCC[C@H]1c1nc(C(=O)c2cccc(OCCCCCCCCCCCCN(C)CCOC34CC5(C)CC(C)(CC(Cn6ncc(-c7ccc(N8CCCc9c8nnc(Nc8nc%10ccccc%10s8)c9C)nc7C(=O)O)c6C)(C5)C3)C4)c2)cs1)C1CCCCC1` [Example 96, 6-[3-(1,3-benzothiazol-2-ylamino)-4-methyl-6,7-dihydro-5H-pyrido[2,3-c]pyridazin-8-yl]-3-[1-[[3-[2-[12-[3-[2-[(2S)-1-[(2S)-2-cyclohexyl-2-[[(2S)-2-(methylamino)propanoyl]amino]acetyl]pyrrolidin-2-yl]thiazole-4-carbonyl]phenoxy]dodecyl-methyl-amino]ethoxy]-5,7-dimethyl-1-adamantyl]methyl]-5-methyl-pyrazol-4-yl]pyridine-2-carboxylic acid] gave a DC50 at Bcl-xL greater than 316 nM. This molecule yielded an IC50 with MOLT-4 cells of 4.36 nM.
In the same order, the values of `Cc1c(Nc2nc3ccccc3s2)nnc2c1CCCN2c1ccc(-c2cnn(CC34CC5(C)CC(C)(C3)CC(OCCN(C)CCCCCCCOc3ccc6c(c3)C(=O)N(C3CCC(=O)NC3=O)C6=O)(C5)C4)c2C)c(C(=O)O)n1` (stereo not shown) [Example 106, 6-[3-(1,3-benzothiazol-2-ylamino)-4-methyl-6,7-dihydro-5H-pyrido[2,3-c]pyridazin-8-yl]-3-[1-[[3-[2-[7-[2-(2,6-dioxo-3-piperidyl)-1,3-dioxo-isoindolin-5-yl]oxyheptyl-methyl-amino]ethoxy]-5,7-dimethyl-1-adamantyl]methyl]-5-methyl-pyrazol-4-yl]pyridine-2-carboxylic acid] are 0.211 nM and 2.63 nM.
At Bcl-xL, `Cc1c(Nc2nc3ccccc3s2)nnc2c1CCCN2c1nc(C(=O)O)c(CCCOc2ccc(C#CCN3CCN(C(=O)CCCC(=O)NCCOCCNC(=O)COc4cccc5c4C(=O)N(C4CCC(=O)NC4=O)C5=O)CC3)cc2F)s1` (stereo not shown) [Example 174, 2-[3-(1,3-benzothiazol-2-ylamino)-4-methyl-6,7-dihydro-5H-pyrido[2,3-c]pyridazin-8-yl]-5-[3-[4-[3-[4-[5-[2-[2-[[2-[2-(2,6-dioxo-3-piperidyl)-1,3-dioxo-isoindolin-4-yl]oxyacetyl]amino]ethoxy]ethylamino]-5-oxo-pentanoyl]piperazin-1-yl]prop-1-ynyl]-2-fluoro-phenoxy]propyl]thiazole-4-carboxylic acid] displayed a DC50 greater than 316 nM. For the same molecule, the IC50 in the experiment on MOLT-4 cells was found to be 26 nM.
As to `Cc1cc(N(CCCCN(C)C(=O)CCCCCCCCCCCNc2cccc3c2C(=O)N(C2CCC(=O)NC2=O)C3=O)c2ccc(-c3cnn(CC45CC6(C)CC(C)(C4)CC(OCCN(C)C)(C6)C5)c3C)c(C(=O)O)n2)nnc1Nc1nc2ccccc2s1` (stereo not shown) [Example 93, 6-[[6-(1,3-benzothiazol-2-ylamino)-5-methyl-pyridazin-3-yl]-[4-[12-[[2-(2,6-dioxo-3-piperidyl)-1,3-dioxo-isoindolin-4-yl]amino]dodecanoyl-methyl-amino]butyl]amino]-3-[1-[[3-[2-(dimethylamino)ethoxy]-5,7-dimethyl-1-adamantyl]methyl]-5-methyl-pyrazol-4-yl]pyridine-2-carboxylic acid], the DC50 on Bcl-xL stood at 0.951 nM. Also, in the experiment with MOLT-4 cells, the IC50 stood at 19.6 nM.
For `Cc1c(Nc2nc3ccccc3s2)nnc2c1CCCN2c1ccc(-c2cnn(CC34CC5(C)CC(C)(C3)CC(OCCN(C)CCOCCOCCOCCOCCNc3cccc6c3C(=O)N(C3CCC(=O)NC3=O)C6=O)(C5)C4)c2C)c(C(=O)O)n1` (stereo not shown) [Example 132, 6-[3-(1,3-benzothiazol-2-ylamino)-4-methyl-6,7-dihydro-5H-pyrido[2,3-c]pyridazin-8-yl]-3-[1-[[3-[2-[2-[2-[2-[2-[2-[[2-(2,6-dioxo-3-piperidyl)-1,3-dioxo-isoindolin-4-yl]amino]ethoxy]ethoxy]ethoxy]ethoxy]ethyl-methyl-amino]ethoxy]-5,7-dimethyl-1-adamantyl]methyl]-5-methyl-pyrazol-4-yl]pyridine-2-carboxylic acid], the remaining activity at 0.01 µM at Bcl-xL (HCT-116, HCT116, 10 nM, 24 h, % of untreated cells) was determined as 108%. For the same molecule, at Bcl-xL (HCT-116, HCT116, 100 nM, 24 h, % of untreated cells), the remaining activity at 0.1 µM stood at 103%. The molecule further registered an IC50 in the experiment with MOLT-4 cells of 26.6 nM.

In general, DC50 refers to the midpoint of the concentration-degradation curve. Low readings indicate degradation at low concentration, high ones degradation only at high concentration. The term IC50 denotes the concentration needed to halve the response being measured. Low values mean higher potency, high ones lower potency. The remaining activity is the signal under treatment as a percentage of the control signal.

These data come from patent US20240376094A2, “SELECTIVE BCL-XL PROTAC COMPOUNDS AND METHODS OF USE” (Les Laboratoires Servier, priority 2021, published 2024).
